Common to all, as to assay type: biochemical
One test deals with LRRK2 (G2019S) (Homo sapiens, UniProt Q5S007, G2019S). The experiment in a line: LRRK2 G2019S enzyme inhibition, ADP-Glo kinase assay. Set-up: purchased SignalChem L10-12GG. As to conditions: ATP 25 μM. The method in brief: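 Purified human LRRK2 G2019S (16 ng) with 25 μM ATP and 0.2 μg substrate, 2 h at 25° C. in Tris-HCl pH 7.4, MgCl2, BSA, DTT buffer; compounds at 12 final concentrations, 50 μM down to 0.000001024 μM. ADP-Glo luminescence versus solvent control gave IC50.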

For the next test, the target named is T1, human GST-DYRK1A (Homo sapiens, UniProt Q13627).
T1 construct: purified human GST-DYRK1A (full length, Thermo Scientifics) enzyme; purchased Thermo Scientifics
As to the kind of experiment: GST-DYRK1A enzyme inhibition, ADP-Glo kinase assay. The following applies: ATP 10 μM, GST-DYRK1A full length, read-out: DYRK1 IC50. The method in brief: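 Full-length human GST-DYRK1A (10 ng) with 10 μM ATP and specific substrate in 40 mM Tris-HCl pH 7.4, 20 mM MgCl2, 0.5 mg/mL BSA, 50 μM DTT, 1 h at 25 °C. ADP formation read by ADP-Glo luminescence relative to solvent control; IC50 from three data sets.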
A general note: ADP-Glo turns the ADP formed in a reaction into a luminescent signal.

For the next test, the target named is T2, human GST-CLK1 (Homo sapiens, UniProt P49759).
T2 construct: purified human GST-CLK1 (129-end, SignalChem) enzyme; purchased SignalChem
The experiment in a line: GST-CLK1 enzyme inhibition, ADP-Glo kinase assay. As to conditions: ATP 10 μM, GST-CLK1 129-end. The method in brief: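 Human GST-CLK1 (129-end, 3 ng) reacted with substrate and 10 μM ATP for 1 h at 25° C in 40 mM Tris-HCl pH 7.4, 20 mM MgCl2, 0.5 mg/mL BSA, 50 μM DTT. ADP-Glo luminescence was normalised to solvent control; IC50 (nM) from 3 data sets.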

In general, IC50 refers to the concentration needed to halve the response being measured.

T2 sequence (P49759 129-484 limits assumed): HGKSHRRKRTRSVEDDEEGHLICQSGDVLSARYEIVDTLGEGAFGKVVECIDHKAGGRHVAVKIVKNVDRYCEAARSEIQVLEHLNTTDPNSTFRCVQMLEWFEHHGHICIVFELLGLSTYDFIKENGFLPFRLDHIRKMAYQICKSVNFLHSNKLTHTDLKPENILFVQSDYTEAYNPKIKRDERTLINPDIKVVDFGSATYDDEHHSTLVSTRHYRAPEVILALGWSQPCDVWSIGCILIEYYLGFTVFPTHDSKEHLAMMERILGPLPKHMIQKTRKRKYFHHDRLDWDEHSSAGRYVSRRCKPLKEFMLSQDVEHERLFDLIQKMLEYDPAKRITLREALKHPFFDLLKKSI
Chain of LRRK2 (G2019S) (Q5S007 970-2527 G2019S limits assumed): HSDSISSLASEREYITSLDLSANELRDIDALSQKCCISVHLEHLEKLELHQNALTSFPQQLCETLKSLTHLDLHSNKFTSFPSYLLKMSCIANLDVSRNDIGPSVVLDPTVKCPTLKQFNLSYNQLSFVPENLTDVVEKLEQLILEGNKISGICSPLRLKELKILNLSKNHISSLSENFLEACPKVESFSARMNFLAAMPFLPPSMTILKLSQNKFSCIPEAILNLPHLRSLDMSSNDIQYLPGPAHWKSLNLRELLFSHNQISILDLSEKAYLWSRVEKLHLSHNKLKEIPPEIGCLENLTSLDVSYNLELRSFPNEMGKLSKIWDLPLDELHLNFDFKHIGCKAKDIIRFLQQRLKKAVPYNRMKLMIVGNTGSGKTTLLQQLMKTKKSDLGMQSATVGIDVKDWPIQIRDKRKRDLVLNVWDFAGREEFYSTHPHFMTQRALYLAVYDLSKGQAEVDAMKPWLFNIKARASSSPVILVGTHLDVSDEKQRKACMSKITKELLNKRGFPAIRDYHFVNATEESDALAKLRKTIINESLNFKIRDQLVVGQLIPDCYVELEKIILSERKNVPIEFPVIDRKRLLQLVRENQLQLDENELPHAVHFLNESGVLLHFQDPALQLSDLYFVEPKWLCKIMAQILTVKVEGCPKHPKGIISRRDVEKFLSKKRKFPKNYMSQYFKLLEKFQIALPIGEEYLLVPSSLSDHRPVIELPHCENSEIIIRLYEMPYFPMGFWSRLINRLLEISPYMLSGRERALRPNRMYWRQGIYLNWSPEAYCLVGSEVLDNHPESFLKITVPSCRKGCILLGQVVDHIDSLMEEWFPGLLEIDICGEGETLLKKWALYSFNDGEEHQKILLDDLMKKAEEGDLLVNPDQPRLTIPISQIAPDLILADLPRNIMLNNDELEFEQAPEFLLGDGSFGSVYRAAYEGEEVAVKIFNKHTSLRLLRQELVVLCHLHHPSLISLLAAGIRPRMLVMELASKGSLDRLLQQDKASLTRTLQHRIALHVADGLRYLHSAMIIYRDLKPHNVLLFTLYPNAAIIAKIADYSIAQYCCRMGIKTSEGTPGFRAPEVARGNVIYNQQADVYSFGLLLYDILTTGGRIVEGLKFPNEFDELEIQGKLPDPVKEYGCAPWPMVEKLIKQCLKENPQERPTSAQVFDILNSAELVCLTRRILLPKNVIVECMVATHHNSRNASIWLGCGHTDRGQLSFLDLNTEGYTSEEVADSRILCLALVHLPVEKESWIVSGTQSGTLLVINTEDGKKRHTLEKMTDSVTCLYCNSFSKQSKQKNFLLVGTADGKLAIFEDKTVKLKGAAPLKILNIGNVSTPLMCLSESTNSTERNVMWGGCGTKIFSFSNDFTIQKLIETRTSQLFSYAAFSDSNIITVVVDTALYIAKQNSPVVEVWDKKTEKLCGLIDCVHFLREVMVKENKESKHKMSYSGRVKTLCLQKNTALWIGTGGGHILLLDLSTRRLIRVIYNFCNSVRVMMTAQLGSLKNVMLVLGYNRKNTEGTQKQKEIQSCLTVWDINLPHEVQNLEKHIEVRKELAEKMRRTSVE

Turning to `CCNc1nc(Nc2ccc(P3(=O)CCN(Cc4ccc(OC)cc4OC)CC3)cn2)nc2[nH]cc(C(F)(F)F)c12` [Example 153, 1-(2,4-dimethoxybenzyl)-4-(6-((4-(ethylamino)-5-(trifluoromethyl)-7H-pyrrolo[2,3-d]pyrimidin-2-yl)amino)pyridin-3-yl)-1,4-azaphosphinane 4-oxide], the IC50 against LRRK2 (G2019S), at human GST-DYRK1A and at human GST-CLK1 was under 100 nM each time.

As to `COc1cc(S(=O)(=O)N2CCC(N3CCOCC3)CC2)ccc1Nc1nc(NCC2CC2)c2cc[nH]c2n1` [Example 32, N^4-(cyclopropylmethyl)-N^2-(2-methoxy-4-((4-morpholinopiperidin-1-yl)sulfonyl)phenyl)-7H-pyrrolo[2,3-d]pyrimidine-2,4-diamine], the half-inhibitory concentration (IC50) at LRRK2 (G2019S) is under 100 nM; on human GST-DYRK1A it was 301 to 1000 nM; against human GST-CLK1, 301 to 1000 nM.

For `CCCNc1nc(Nc2ccc(S(=O)(=O)N3CCOCC3)cc2OC)nc2[nH]ccc12` [Example 7, N^2-(2-methoxy-4-(morpholinosulfonyl)phenyl)-N^4-propyl-7H-pyrrolo[2,3-d]pyrimidine-2,4-diamine 2,2,2-trifluoroacetate], the half-inhibitory concentration (IC50) at LRRK2 (G2019S) is under 100 nM; at human GST-DYRK1A, 301 to 1000 nM; against human GST-CLK1, 301 to 1000 nM.

On to `COc1cc(S(C)(=O)=O)ccc1Nc1nc(N[C@H]2CCOC2)c2c(C(F)(F)F)c[nH]c2n1` [Example 384, (S)-N^2-(2-methoxy-4-(methylsulfonyl)phenyl)-N^4-(tetrahydrofuran-3-yl)-5-(trifluoromethyl)-7H-pyrrolo[2,3-d]pyrimidine-2,4-diamine], for which the half-inhibitory concentration (IC50) on LRRK2 (G2019S) is under 100 nM; on human GST-DYRK1A, 301 to 1000 nM; on human GST-CLK1 it was under 100 nM.

Turning to `COc1cc(S(=O)(=O)N2CCOCC2)ccc1Nc1nc(NCC(C)C)c2cc[nH]c2n1` [Example 10, N^4-isobutyl-N^2-(2-methoxy-4-(morpholinosulfonyl)phenyl)-7H-pyrrolo[2,3-d]pyrimidine-2,4-diamine], the results for the half-inhibitory concentration (IC50) against LRRK2 (G2019S), at human GST-DYRK1A and against human GST-CLK1 were under 100 nM, 301 to 1000 nM and 301 to 1000 nM, respectively.

As to `O=C(c1ccc(Nc2nc(NCC3CCCC3)c3c(C(F)(F)F)c[nH]c3n2)c2c1OCCO2)N1CCN(C2COC2)CC1` [Example 425, (8-((4-((cyclo-pentylmeth-yl)amino)-5-(trifluoromethyl)-7H-pyrrolo[2,3-d]pyrimidin-2-yl)amino)-2,3-dihydrobenzo[b] [1,4]dioxin-5-yl) (4-(oxetan-3-yl)piperazin-1-yl)methanone], the figures for the IC50 against LRRK2 (G2019S), at human GST-DYRK1A and at human GST-CLK1 were under 100 nM, 301 to 1000 nM and 301 to 1000 nM, respectively.

For `CCCNc1nc(Nc2ccc(S(=O)(=O)N3CCC(N4CCOCC4)CC3)cc2OC)nc2[nH]ccc12` [Example 8, N^2-(2-methoxy-4-((4-morpholinopiperidin-1-yl)sulfonyl)phenyl)-N^4-propyl-7H-pyrrolo[2,3-d]pyrimidine-2,4-diamine 2,2,2-trifluoroacetate], the values for the IC50 at LRRK2 (G2019S), on human GST-DYRK1A and against human GST-CLK1 were under 100 nM, 301 to 1000 nM and 301 to 1000 nM, respectively.

For `CC[C@@H](C)Nc1nc(Nc2ccc(C(=O)N3CCC(N4CCOCC4)CC3)c3c2OCC3)nc2[nH]cc(C#N)c12` [Example 355, (R)-4-(sec-butylamino)-2-((4-(4-morpho-linopiperidine-1-carbonyl)-2,3-dihydro-benzofuran-7-yl)amino)-7H-pyrrolo[2,3-d]pyrimidine-5-carbonitrile], the IC50 against LRRK2 (G2019S), at human GST-DYRK1A and at human GST-CLK1 was under 100 nM in each case.

For `CC[C@@H](C)Nc1nc(Nc2ccc(C(=O)N3CCOCC3)c3c2OCC3)nc2[nH]cc(C#N)c12` [Example 354, (R)-4-(sec-butylamino)-2-((4-(morpholine-4-carbonyl)-2,3-dihydrobenzo-furan-yl)amino)-7H-pyrrolo[2,3-d]pyrimidine-5-carbonitrile], the IC50 against LRRK2 (G2019S) was under 100 nM; on human GST-DYRK1A, 301 to 1000 nM; on human GST-CLK1, under 100 nM.

For `O=C(c1ccc(Nc2nc(NCC3CC3)c3c(C(F)(F)F)c[nH]c3n2)c2c1CCO2)N1CCOCC1` [Example 457, (7-((4-((cyclo-propylmeth-yl)amino)-5-(trifluoromethyl)-7H-pyrrolo[2,3-d]pyrimidin-2-yl)amino)-2,3-dihydrobenzo-furan-4-yl) (morpholino) methanone], the half-inhibitory concentration (IC50) against LRRK2 (G2019S) is under 100 nM; at human GST-DYRK1A, 301 to 1000 nM; at human GST-CLK1, under 100 nM.

For `COc1cc(P2(=O)CCN(C3CC3)CC2)ccc1Nc1nc(NCC2CC2)c2c(C(F)(F)F)c[nH]c2n1` [Example 421, 1-cyclopropyl-4-(4-((4-((cyclo-propylmeth-yl)amino)-5-(trifluoromethyl)-7H-pyrrolo[2,3-d]pyrimidin-2-yl)amino)-3-methoxyphenyl)-1,4-azaphosphinane 4-oxide], the values for the IC50 against LRRK2 (G2019S), at human GST-DYRK1A and against human GST-CLK1 were under 100 nM, 301 to 1000 nM and 301 to 1000 nM, respectively.

For the compound `O=C(c1ccc(Nc2nc(NC3CCCCC3)c3c(C(F)(F)F)c[nH]c3n2)c2c1CCO2)N1CCOCC1` [Example 454, (7-((4-(cyclo-hexylamino)-5-(trifluoromethyl)-7H-pyrrolo[2,3-d]pyrimidin-2-yl)amino)-2,3-dihydrobenzo-furan-4-yl) (morpholino) methanone], the 50% inhibitory concentration (IC50) was under 100 nM against LRRK2 (G2019S), 301 to 1000 nM on human GST-DYRK1A and 301 to 1000 nM against human GST-CLK1.

Consider `CC[C@@H](C)Nc1nc(Nc2ccc(S(=O)(=O)N3CCOCC3)cc2OC)nc2[nH]ccc12` [Example 59, (R)-N^4-(sec-butyl)-N^2-(2-methoxy-4-(morpholinosulfonyl)phenyl)-7H-pyrrolo[2,3-d]pyrimidine-2,4-diamine], for which the IC50 against LRRK2 (G2019S) was under 100 nM; on human GST-DYRK1A, 301 to 1000 nM; against human GST-CLK1, 301 to 1000 nM.

`COc1cc(P(C)(C)=O)ccc1Nc1nc(NCC2CCCC2)c2c(C(F)(F)F)c[nH]c2n1` [Example 392, (4-((4-((cyclo-pentylmeth-yl)amino)-5-(trifluoromethyl)-7H-pyrrolo[2,3-d]pyrimidin-2-yl)amino)-3-methoxyphenyl) dimethyl-phosphine oxide]: the IC50 on LRRK2 (G2019S), on human GST-DYRK1A and against human GST-CLK1 was 301 to 1000 nM in each case.

Regarding `COc1cc(S(=O)(=O)N2CCOCC2)ccc1Nc1nc(NCC2CC2)c2cc[nH]c2n1` [Example 31, N^4-(cyclopropylmethyl)-N^2-(2-methoxy-4-(morpholinosulfonyl)phenyl)-7H-pyrrolo[2,3-d]pyrimidine-2,4-diamine 2,2,2-trifluoroacetate], the 50% inhibitory concentration (IC50) on LRRK2 (G2019S) was under 100 nM; at human GST-DYRK1A it was 301 to 1000 nM; at human GST-CLK1, 301 to 1000 nM.

As to `COc1cc(S(C)(=O)=O)ccc1Nc1nc(NCC2CCCC2)c2cc[nH]c2n1` [Example 42, N^4-(cyclopentylmethyl)-N^2-(2-methoxy-4-(methylsulfonyl)phenyl)-7H-pyrrolo[2,3-d]pyrimidine-2,4-diamine 2,2,2-trifluoroaceate], the half-maximal inhibitory concentration (IC50) on LRRK2 (G2019S) is 101 to 300 nM; on human GST-DYRK1A, 301 to 1000 nM; against human GST-CLK1, 301 to 1000 nM.

`COCCNc1nc(Nc2ccc(S(C)(=O)=O)cc2OC)nc2[nH]ccc12` [Example 21, N^2-(2-methoxy-4-(methylsulfonyl)phenyl)-N^4-(2-methoxyethyl)-7H-pyrrolo[2,3-d]pyrimidine-2,4-diamine 2,2,2-trifluoroacetate]: the IC50 on LRRK2 (G2019S) is under 100 nM; on human GST-DYRK1A, 301 to 1000 nM; at human GST-CLK1, 301 to 1000 nM.

Take `COc1cc(S(C)(=O)=O)ccc1Nc1nc(NCC2CC2)c2cc[nH]c2n1` [Example 33, N^4-(cyclopropylmethyl)-N^2-(2-methoxy-4-(methylsulfonyl)phenyl)-7H-pyrrolo[2,3-d]pyrimidine-2,4-diamine]: the IC50 at LRRK2 (G2019S) is under 100 nM; on human GST-DYRK1A, 301 to 1000 nM; on human GST-CLK1, 301 to 1000 nM.

Consider `CS(=O)(=O)CCNc1nc(Nc2ccc(C(=O)N3CCC(N4CCOCC4)CC3)c3c2OCC3)nc2[nH]cc(C#N)c12` [Example 345, 4-((2-(methyl-sulfonyl)eth-yl)amino)-2-((4-(4-morpholino-piperidine-1-carbonyl)-2,3-dihydro-benzofuran-7-yl)amino)-7H-pyrrolo[2,3-d]pyrimidine-5-carbonitrile], for which the values for the IC50 at LRRK2 (G2019S), on human GST-DYRK1A and against human GST-CLK1 were under 100 nM, 301 to 1000 nM and under 100 nM, respectively.

Regarding `CNc1nc(Nc2ccc(P3(=O)CCN(C4CC4)CC3)cc2OC)nc2[nH]cc(C(F)(F)F)c12` [Example 216, 1-cyclopropyl-4-(3-methoxy-4-((4-(methylamino)-5-(trifluoromethyl)-7H-pyrrolo[2,3-d]pyrimidin-2-y)amino)phenyl)-1,4-azaphosphinane 4-oxide], the IC50 on LRRK2 (G2019S) was under 100 nM; at human GST-DYRK1A, 101 to 300 nM; against human GST-CLK1, 101 to 300 nM.

Take `COc1cc(S(C)(=O)=O)ccc1Nc1nc(NCC(C)C)c2c(C#N)c[nH]c2n1` [Example 100, 4-(isobutylamino)-2-((2-methoxy-4-(methylsulfonyl)phenyl)amino)-7H-pyrrolo[2,3-d]pyrimidine-5-carbonitrile]: the IC50 against LRRK2 (G2019S) is under 100 nM; at human GST-DYRK1A, 301 to 1000 nM; at human GST-CLK1 it was 301 to 1000 nM.

The values above are taken from US20230066011A1, “PYRROLOPYRIMIDINE DERIVATIVE, AND PHARMACEUTICAL COMPOSITION FOR PREVENTING OR TREATING PROTEIN KINASE-RELATED DISEASE COMPRISING SAME AS ACTIVE INGREDIENT” (VORONOI CO., LTD., priority 2019, published 2023).
